Data on one compound can be found in patent US20200290950A1, “ALKAMIDE COMPOUNDS AND USES THEREOF” (NORTH CAROLINA STATE UNIVERSITY, priority 2017, published 2020).

In assay [1] the test system is RBL-2H3 cells. Kind of assay: Calcium assay, Fluo-4 (Example 3). Type of assay: cell-based, rat. The procedure:
FIGS. 22A-22D. The alkamide fatty acid is necessary for inhibition of calcium influx. RBL-2H3 cells were plated overnight, incubated with Fluo-4 AM for 1 h, stimulated by 1 μM A23187 (FIG. 22A) or 5 ng/mL DNP-BSA (FIG. 22B) in the absence or presence of each alkamide, and fluorescence was read for 2 mins every 5 secs. Data are presented as the mean change in RFU of 4 experiments. Percent inhibition of calcium influx was calculated for A23187 (FIG. 22C) and DNP-BSA (FIG. 22D) stimulated cells at 2 mins. *P<0.05, **P<0.01, and ***P<0.001 one-way ANOVA with Dunnett's post hoc test compared to A15.
RBL-2H3 cells (1.0×10^5 cells) were incubated overnight in a 96 well black-wall clear bottom plate with or without IgE-DNP (0.1 μg/mL) at 37° C. with 5% CO2. The assay was performed using the Fluo-4 Direct™ Calcium Assay Kit according to the manufacturer's instruction. Briefly, cells were incubated with the Fluo-4 Direct calcium reagent loading solution for 30 minutes at 37° C. with 5% CO2 then 30 mins at room temperature. Prior to stimulation, the well baseline fluorescence was measured every 5 seconds over 1 minute using a BioTek Synergy HT microplate reader with 485/20 nm excitation and 528/20 nm emission filters. Cells were stimulated with 1 μM A23187 or 5 ng/mL DNP (IgE-DNP) in the absence or presence of each compound, and the fluorescence was measured every 5 seconds over 2 minutes. The change in fluorescence (ΔRT) was calculated as the sample fluorescence minus the baseline fluorescence for each well.

For assay [2], the system named is RBL-2H3 cells. The experiment in a line: TNF-α ELISA, 18 hrs (Example 3). To be noted: 1 μM A23187, 18 hours. Type of assay: cell-based, rat. The method, then:
FIGS. 25A-25B. […] RBL-2H3 cells were plated overnight and stimulated with 1 μM A23187 in the absence or presence of each alkamide for 18 h. Culture supernatants were analyzed for TNF-α levels by ELISA and experiments were performed in triplicate (FIG. 25A). Percent inhibition of TNF-α secretion for each alkamide listed in FIG. 25B. *P<0.05, **P<0.01, ***P<0.001, one-way ANOVA with Dunnett's post hoc test compared to vehicle (FIG. 25A) or A15 (FIG. 25B).
RBL-2H3 cells (1.0×10^5 cells) were incubated overnight in a 24 well plate at 37° C. with 5% CO2. Cells were washed with 1×PBS and stimulated with 1 μM A23187 for 18 hrs in the absence or presence of each compound. The cells were centrifuged (1200×g, 5 min) and the supernatants were collected. The concentration of TNF-α in the supernatants were determined using the TNF-α ELISA kit.
On the technique in general: An ELISA detects its analyte on a solid surface through an enzyme-linked reagent.

The test system of assay [3] is RBL-2H3 cells. The experiment in a line: β-Hexosaminidase release assay (Example 3). Type of assay: cell-based, rat. The procedure:
FIGS. 21A-21D. The inhibition of degranulation is dependent on the length of the alkamide fatty acid chain. RBL-2H3 cells were plated overnight, stimulated with 1 μM A23187 (FIG. 21A) or 5 ng/mL DNP-BSA (FIG. 21B) for 1 h in the absence or presence of each compound. Graphs display the mean percent β-hex release. Data are presented as the mean of 4 experiments. Percent inhibition of degranulation of A23187 (FIG. 21C) or DNP-BSA (FIG. 21D) using data from A and B, respectively. *P<0.05, **P<0.01, ***P<0.001, one-way ANOVA with Dunnett's post hoc test compared to vehicle (A, B) or A15 (C, D).
RBL-2H3 cells (1.0×10^5 cells) were incubated with or without 0.1 μg/mL of IgE-DNP overnight in a 96 well plate at 37° C. with 5% CO2. The cells were washed with Tyrode's buffer and assayed with few modifications (Kuehn, Radinger, & Gilfillan, 2010). Briefly, IgE-DNP sensitized cells were stimulated 1 hour with 5 ng/mL of DNP-BSA in the absence or presence of each compound and incubated at 37° C. with 5% CO2. For experiments using only A23187 as the stimulant, cells were washed with Tyrode's buffer and stimulated 1 hour with 1 μM A23187 in the absence or presence of each compound and incubated at 37° C. with 5% CO2. The stimulated cells were centrifuged at 1200×g for 5 minutes. The supernatant or cell lysate (30 μL) was incubated with 3.4 mg/mL of p-NAG (10 μL) for 1 hour at 37° C. The reaction was terminated by addition of 0.2 M sodium carbonate (pH 10) and the absorbance was read at OD405 nm on a BioTek Synergy HT microplate reader. The total 3-hexosaminidase released from the cell was calculated as the difference between the OD of the supernatant and blank plus the difference between the OD of the lysate and blank. The percent β-hexosaminidase released from the cell was calculated as the difference between the OD of the supernatant and blank divided by the total β-hexosaminidase released from the cell multiplied by 100: ODsupernatant−ODblank/[(ODlysate−ODblank)+(ODsupernatant−ODblank)]*100.

A further assay addresses T1, TRPA1 (Mus musculus, UniProt Q8BLA8).
T1 construct: The receptors TRPA1 and TRPV1 are expressed on neurons; from tissue; host or cells: primary dorsal root ganglion neurons from mice
The experiment in a line: Calcium response of DRG neurons to mustard (allyl isothiocyanate). Type of assay: cell-based. Conditions: cultured DRG neurons, fluorescence microscopy. The source says: FIG. 11. Calcium response from DRG sensory neurons to alkamide of transient receptors. Mustard a TRPA1-receptor agonist activates DRG neurons in gray (A) and capsaicin, an agonist for TRPV1-receptors in the DRG neurons in red (B). Ligand A15 inhibits both TRPA1 and TRPV1 receptors activation in orange; however, 85Y a synthetic ligand only reduces the inhibition of TRPA1 but not TRPV1 receptors in blue. Total number of neurons (n)=135-145; p≤0.05.
Several different model systems were utilized for these experiments. In one model, dorsal root ganglia were obtained from mice and the neurons cultured in vitro. The neurons were then stimulated in the presence/absence of A15 and YM8-85 and the calcium responses monitored by fluorescence microscopy. In the second model, the alkamides were applied to mouse skin in mineral oil. The reactions of these mice to heat, cold, and tactile stimulation was then compared with mice that had not received treatment with A15. […] Alkamides were applied to sensitized animals and then ear swelling and bouts of scratching were monitored.
In vitro DRG neuron responses. […] Neurons were stimulated with mustard (allyl isothiocyanate) (A) an agonist for the receptor TRPA-1 or capsaicin (B) an agonist for the receptor TRPV-1 and calcium responses were measured in individual neurons by fluorescence microscopy. […]

A further assay is described as follows: TDI-induced ear swelling. Type of assay: in vivo, mouse. The source says:
(§1) Several different model systems were utilized for these experiments. In one model, dorsal root ganglia were obtained from mice and the neurons cultured in vitro. The neurons were then stimulated in the presence/absence of A15 and YM8-85 and the calcium responses monitored by fluorescence microscopy. In the second model, the alkamides were applied to mouse skin in mineral oil. The reactions of these mice to heat, cold, and tactile stimulation was then compared with mice that had not received treatment with A15. In a third model, mice were sensitized to the chemical compound toluene-2,4-diisocyanate (TDI). TDI is an industrial chemical which causes hypersensitive skin lesions and itching in exposed humans and animals. The physiological response to TDI is complex involving type 2 T lymphocytes, cytokines, mast cells, and neurons. Alkamides were applied to sensitized animals and then ear swelling and bouts of scratching were monitored.
A15 and TDI induced hypersensitivity. Mice were sensitized to toluene-2,4-diisocyanate (TDI) via abdominal application. Subsequently, a hypersensitive response was induced in the ear by direct application of TDI and ear thickness measured as a sign of inflammation.

Assay [4] is described as follows: TDI-induced scratching bouts (itch). Conditions: higher dose 1.0%. In kind it is in vivo, mouse.
Description: as §1
The effects of A15 on TDI-induced itch. The itch response was also monitored in mice sensitized and treated with TDI. Treated mice were video recorded and the number of scratching bouts quantified by an observer.

T1 sequence (Q8BLA8 whole entry): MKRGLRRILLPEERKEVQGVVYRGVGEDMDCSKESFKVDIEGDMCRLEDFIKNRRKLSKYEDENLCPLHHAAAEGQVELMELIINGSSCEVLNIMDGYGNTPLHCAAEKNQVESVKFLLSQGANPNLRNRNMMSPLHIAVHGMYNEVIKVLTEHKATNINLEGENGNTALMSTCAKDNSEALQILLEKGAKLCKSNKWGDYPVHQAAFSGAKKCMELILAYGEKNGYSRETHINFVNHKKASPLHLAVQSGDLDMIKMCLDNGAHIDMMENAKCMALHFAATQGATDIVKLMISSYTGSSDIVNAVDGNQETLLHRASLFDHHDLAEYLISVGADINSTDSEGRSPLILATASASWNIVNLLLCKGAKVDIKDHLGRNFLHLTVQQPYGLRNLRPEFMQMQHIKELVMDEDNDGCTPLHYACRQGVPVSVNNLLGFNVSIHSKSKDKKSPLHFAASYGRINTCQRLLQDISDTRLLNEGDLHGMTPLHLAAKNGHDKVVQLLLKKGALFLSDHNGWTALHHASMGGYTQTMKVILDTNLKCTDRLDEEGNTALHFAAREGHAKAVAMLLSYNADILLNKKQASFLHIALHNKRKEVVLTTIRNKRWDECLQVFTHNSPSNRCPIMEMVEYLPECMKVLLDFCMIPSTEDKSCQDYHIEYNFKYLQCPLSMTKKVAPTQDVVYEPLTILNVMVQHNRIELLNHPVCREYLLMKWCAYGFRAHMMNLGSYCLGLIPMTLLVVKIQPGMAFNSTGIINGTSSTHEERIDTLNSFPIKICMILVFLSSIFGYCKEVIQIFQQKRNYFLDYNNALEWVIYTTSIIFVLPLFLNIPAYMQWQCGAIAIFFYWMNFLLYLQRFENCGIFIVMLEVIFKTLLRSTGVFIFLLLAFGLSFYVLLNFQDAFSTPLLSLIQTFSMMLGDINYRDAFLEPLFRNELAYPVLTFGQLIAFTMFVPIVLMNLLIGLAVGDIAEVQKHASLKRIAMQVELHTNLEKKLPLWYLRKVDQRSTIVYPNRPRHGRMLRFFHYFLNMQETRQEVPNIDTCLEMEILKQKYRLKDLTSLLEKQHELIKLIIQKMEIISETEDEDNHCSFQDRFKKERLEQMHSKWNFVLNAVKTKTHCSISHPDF

Regarding `CCCCCCCC(=O)NCC(C)C` [YM8-85, N-Isobutyloctanamide], the “percent inhibition of calcium influx” value came out at 49% in the assay with RBL-2H3 cells [1] (5 ng/mL DNP-BSA, at 2 minutes) and 91% in the assay on RBL-2H3 cells [1] (1 μM A23187, at 2 minutes). In the assay on RBL-2H3 cells [2], the “percent inhibition of TNF-α secretion” value came to 43%. The “percent inhibition of degranulation” value in the assay on RBL-2H3 cells [3] (5 ng/mL DNP-BSA, 1 hour) is 60%; in the assay on RBL-2H3 cells [3] (1 μM A23187, 1 hour) it was 64%. The “DRG neuron calcium response to mustard (TRPA1 agonist)” value on TRPA1 is recorded as “inhibit”. The “TDI ear swelling (ear thickness)” value in the assay “TDI-induced ear swelling” (0.1%, first experiment (FIG. 13A)) is “significant responses were not seen”; in “TDI-induced ear swelling” (0.1%, repeated experiment (FIG. 13B)) it was “neither A15 nor YM8-85 at 0.1% produced significant inhibition”; in the assay “TDI-induced ear swelling” (1%, first experiment (FIG. 13A)), “significant responses were not seen”. In addition, in assay [4], the “scratching bouts in TDI treated mice” value was “significant inhibition of scratching”.
